Assay results as given in PubChem BioAssay AID292 (DTP/NCI, 2004).
Where “and” joins values, the source holds several entries; their conditions need not be identical. Equal values may be shown once. Inconclusive results and toxic doses are left out.

System: B6C3F1 mice, ip Sarcoma M5076, median survival T/C
Assay: NCI In Vivo Anticancer Drug Screen. Data for tumor model Sarcoma M5076 (intraperitoneal) in B6C3F1 mice
Details: endpoint: median survival time, higher = longer survival
Procedure, shortened: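 Survival measured in treated (T) and vehicle control (C) mice with transplantable tumour; result given as T divided by C.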

[1] = dose: 6.25 mg/kg/injection, schedule: Q04DX004 (ip), vehicle: saline with Tween-80
[2] = dose: 12.5 mg/kg/injection, schedule: Q04DX004 (ip), vehicle: saline with Tween-80
[3] = dose: 25.0 mg/kg/injection, schedule: Q04DX004 (ip), vehicle: saline with Tween-80
[4] = dose: 50.0 mg/kg/injection, schedule: Q04DX004 (ip), vehicle: saline with Tween-80
[5] = dose: 100.0 mg/kg/injection, schedule: Q04DX004 (ip), vehicle: saline with Tween-80
[6] = dose: 200.0 mg/kg/injection, schedule: Q04DX004 (ip), vehicle: saline with Tween-80
[7] = dose: 50.0 mg/kg/injection, schedule: Q04DX004 (ip), vehicle: saline
[8] = dose: 100.0 mg/kg/injection, schedule: Q04DX004 (ip), vehicle: saline
[9] = dose: 200.0 mg/kg/injection, schedule: Q04DX004 (ip), vehicle: saline
[10] = dose: 400.0 mg/kg/injection, schedule: Q04DX004 (ip), vehicle: saline
[11] = dose: 25.0 mg/kg/injection, schedule: Q04DX004 (ip), vehicle: saline

## CC(C)NC(=O)OCc1c(COC(=O)NC(C)C)c(-c2ccc(Cl)c(Cl)c2)n2c1CCC2
dose: 75.0 mg/kg/injection, schedule: Q04DX004 (ip), vehicle: saline with Tween-80
  T/C: 161 % of control
dose: 108.0 mg/kg/injection, schedule: Q04DX004 (ip), vehicle: saline with Tween-80
  T/C: 188 % of control
dose: 150.0 mg/kg/injection, schedule: Q04DX004 (ip), vehicle: saline with Tween-80
  T/C: 186 % of control
dose: 180.0 mg/kg/injection, schedule: Q04DX004 (ip), vehicle: saline with Tween-80
  T/C: 114 % of control
dose: 600.0 mg/kg/injection, schedule: Q04DX004 (ip), vehicle: saline with Tween-80
  T/C: 152 % of control

## Cc1ccc(C(=O)NC2C(=O)NC(C(C)C)C(=O)N3CCCC3C(=O)N(C)CC(=O)N(C)C(C(C)C)C(=O)OC2C)c2c1Oc1c(c(C(=O)NC3C(=O)NC(C(C)C)C(=O)N4CCCC4C(=O)N(C)CC(=O)N(C)C(C(C)C)C(=O)OC3C)c3nc(-c4ccccc4)c(=O)oc3c1C)N2 (centres undefined)
dose: 0.25 mg/kg/injection, schedule: Q04DX004 (ip), vehicle: water
  T/C: 101 % of control and 113 % of control
dose: 0.5 mg/kg/injection, schedule: Q04DX004 (ip), vehicle: water
  T/C: 99 % of control
dose: 1.0 mg/kg/injection, schedule: Q04DX004 (ip), vehicle: water
  T/C: 114 % of control

## CCOC(=O)/N=[N+](\[O-])c1ccccc1
dose: 3.13 mg/kg/injection, schedule: Q04DX004 (ip), vehicle: saline with Tween-80
  T/C: 105 % of control
[1]
  T/C: 97 % of control
[2]
  T/C: 104 % of control
[3]
  T/C: 97 % of control
[4]
  T/C: 101 % of control

## O=c1nc2[nH]c3c4cccc5cccc(c3nc2c(=O)[nH]1)c54
dose: 12.5 mg/kg/injection, schedule: Q04DX004 (ip), vehicle: Klucel (hydroxypropylcellulose) (HPC)
  T/C: 103 % of control
dose: 25.0 mg/kg/injection, schedule: Q04DX004 (ip), vehicle: Klucel (hydroxypropylcellulose) (HPC)
  T/C: 99 % of control
dose: 50.0 mg/kg/injection, schedule: Q04DX004 (ip), vehicle: Klucel (hydroxypropylcellulose) (HPC)
  T/C: 98 % of control
dose: 100.0 mg/kg/injection, schedule: Q04DX004 (ip), vehicle: Klucel (hydroxypropylcellulose) (HPC)
  T/C: 94 % of control
dose: 200.0 mg/kg/injection, schedule: Q04DX004 (ip), vehicle: Klucel (hydroxypropylcellulose) (HPC)
  T/C: 103 % of control

## c1cc2c(c(CC3CO3)c1CC1CO1)OCCOCCOCCOCCO2 (centres undefined)
dose: 25.0 mg/kg/injection, schedule: Q04DX004 (ip), vehicle: saline + alcohol
  T/C: 107 % of control
dose: 50.0 mg/kg/injection, schedule: Q04DX004 (ip), vehicle: saline + alcohol
  T/C: 108 % of control
dose: 100.0 mg/kg/injection, schedule: Q04DX004 (ip), vehicle: saline + alcohol
  T/C: 111 % of control
dose: 200.0 mg/kg/injection, schedule: Q04DX004 (ip), vehicle: saline + alcohol
  T/C: 120 % of control

## C/C(=N\NC(=S)N1CC2CCC(CC2)C1)c1cccc(C)n1
[1]
  T/C: 104 % of control and 107 % of control
[2]
  T/C: 101 % of control and 106 % of control and 116 % of control
[3]
  T/C: 104 % of control and 110 % of control and 115 % of control
[4]
  T/C: 101 % of control and 107 % of control and 119 % of control

## COC1C(N)C(OC2C(Oc3cccc4c(O)c5c(=O)oc6ccc(C)c7c(=O)oc(c34)c5c67)OC(C)C(O)C2(C)O)OC(C)C1O (centres undefined)
dose: 2.5 mg/kg/injection, schedule: Q04DX004 (ip), vehicle: other
  T/C: 153 % of control
dose: 10.0 mg/kg/injection, schedule: Q04DX004 (ip), vehicle: DMSO
  T/C: 246 % of control
dose: 10.0 mg/kg/injection, schedule: Q04DX004 (ip), vehicle: other
  T/C: 165 % of control

## CC1=CC(C)(C)N=C2SC(COc3ccccc3)=NN12
[4]
  T/C: 104 % of control
[5]
  T/C: 96 % of control
[6]
  T/C: 93 % of control
dose: 400.0 mg/kg/injection, schedule: Q04DX004 (ip), vehicle: saline with Tween-80
  T/C: 99 % of control

## O=C(N/N=C/c1ccco1)c1ccc(OCc2nc3ccccc3[nH]2)cc1
[3]
  T/C: 97 % of control
[4]
  T/C: 95 % of control
[5]
  T/C: 96 % of control
[6]
  T/C: 90 % of control

## COc1cc2cc3c(c(O)c2c(O)c1/C=C/C(C)C)C(=O)CC(C)(OC(C)=O)C3 (centres undefined)
dose: 0.62 mg/kg/injection, schedule: Q01DX009 (ip), vehicle: Klucel (hydroxypropylcellulose) (HPC)
  T/C: 117 % of control
dose: 0.63 mg/kg/injection, schedule: Q01DX009 (ip), vehicle: Klucel (hydroxypropylcellulose) (HPC)
  T/C: 98 % of control and 104 % of control and 106 % of control
dose: 0.63 mg/kg/injection, schedule: Q04DX004 (ip), vehicle: Klucel (hydroxypropylcellulose) (HPC)
  T/C: 113 % of control
dose: 1.25 mg/kg/injection, schedule: Q04DX004 (ip), vehicle: Klucel (hydroxypropylcellulose) (HPC)
  T/C: 121 % of control
dose: 2.5 mg/kg/injection, schedule: Q04DX004 (ip), vehicle: Klucel (hydroxypropylcellulose) (HPC)
  T/C: 123 % of control
dose: 3.6 mg/kg/injection, schedule: Q04DX004 (ip), vehicle: Klucel (hydroxypropylcellulose) (HPC)
  T/C: 106 % of control
dose: 6.0 mg/kg/injection, schedule: Q04DX004 (ip), vehicle: Klucel (hydroxypropylcellulose) (HPC)
  T/C: 110 % of control
dose: 10.0 mg/kg/injection, schedule: Q04DX004 (ip), vehicle: Klucel (hydroxypropylcellulose) (HPC)
  T/C: 118 % of control
dose: 16.67 mg/kg/injection, schedule: Q04DX004 (ip), vehicle: Klucel (hydroxypropylcellulose) (HPC)
  T/C: 117 % of control

## Clc1ccc(-c2noc(CN3CCCCC3)n2)cc1
[4]
  T/C: 92 % of control
[5]
  T/C: 96 % of control
[6]
  T/C: 97 % of control

## O=C(c1ncccc1O)N1CCCCC1
dose: 40.63 mg/kg/injection, schedule: Q04DX004 (ip), vehicle: distilled water + Tween-80
  T/C: 86 % of control
dose: 81.25 mg/kg/injection, schedule: Q04DX004 (ip), vehicle: distilled water + Tween-80
  T/C: 103 % of control
dose: 325.0 mg/kg/injection, schedule: Q04DX004 (ip), vehicle: distilled water + Tween-80
  T/C: 97 % of control
dose: 650.0 mg/kg/injection, schedule: Q04DX004 (ip), vehicle: distilled water + Tween-80
  T/C: 90 % of control

## NCCSC(C[N+](=O)[O-])c1ccccc1Cl (centres undefined)
[2]
  T/C: 90 % of control and 100 % of control
[3]
  T/C: 92 % of control and 105 % of control
[4]
  T/C: 95 % of control and 98 % of control
[5]
  T/C: 109 % of control

## NCCCC(N)(C(=O)O)C(F)F (centres undefined)
[7]
  T/C: 96 % of control
[8]
  T/C: 99 % of control
[9]
  T/C: 99 % of control
[10]
  T/C: 99 % of control
dose: 800.0 mg/kg/injection, schedule: Q04DX004 (ip), vehicle: saline
  T/C: 102 % of control

## S=c1sc2ccccc2n1CN1CCOCC1
[3]
  T/C: 105 % of control and 107 % of control
[4]
  T/C: 95 % of control and 111 % of control
[5]
  T/C: 90 % of control and 104 % of control
[6]
  T/C: 96 % of control and 97 % of control

## Cc1ncc(CO)c(CO)c1OCC(O)CN1CCN(C(=O)c2ccccc2)CC1 (centres undefined)
[11]
  T/C: 103 % of control
[7]
  T/C: 103 % of control
[8]
  T/C: 99 % of control

## Nc1ccn([C@@H](C=O)C[C@@H](C=O)CO)c(=O)n1
[11]
  T/C: 99 % of control
[7]
  T/C: 99 % of control
[8]
  T/C: 103 % of control
[9]
  T/C: 108 % of control
[10]
  T/C: 118 % of control

## Oc1cc(O)cc(/C=C/c2ccc(O)c(O)c2)c1
dose: 12.5 mg/kg/injection, schedule: Q04DX004 (ip), vehicle: DMSO
  T/C: 97 % of control
dose: 25.0 mg/kg/injection, schedule: Q04DX004 (ip), vehicle: DMSO
  T/C: 99 % of control
dose: 50.0 mg/kg/injection, schedule: Q04DX004 (ip), vehicle: DMSO
  T/C: 89 % of control
dose: 100.0 mg/kg/injection, schedule: Q04DX004 (ip), vehicle: DMSO
  T/C: 91 % of control

## OC1OC2COC(c3ccccc3)OC2C(O)C1O (centres undefined)
dose: 18.75 mg/kg/injection, schedule: Q04DX004 (ip), vehicle: water
  T/C: 109 % of control
dose: 37.5 mg/kg/injection, schedule: Q04DX004 (ip), vehicle: water
  T/C: 89 % of control
dose: 75.0 mg/kg/injection, schedule: Q04DX004 (ip), vehicle: water
  T/C: 96 % of control
dose: 150.0 mg/kg/injection, schedule: Q04DX004 (ip), vehicle: water
  T/C: 101 % of control
dose: 300.0 mg/kg/injection, schedule: Q04DX004 (ip), vehicle: water
  T/C: 98 % of control
dose: 600.0 mg/kg/injection, schedule: Q04DX004 (ip), vehicle: water
  T/C: 94 % of control

## CN(C)C(=O)c1cccc(COc2ccc(N3C(N)=NC(N)=NC3(C)C)cc2Cl)c1
dose: 6.25 mg/kg/injection, schedule: Q04DX004 (ip), vehicle: suspension in saline
  T/C: 90 % of control
dose: 12.5 mg/kg/injection, schedule: Q04DX004 (ip), vehicle: suspension in saline
  T/C: 102 % of control
dose: 25.0 mg/kg/injection, schedule: Q04DX004 (ip), vehicle: suspension in saline
  T/C: 93 % of control
dose: 50.0 mg/kg/injection, schedule: Q04DX004 (ip), vehicle: suspension in saline
  T/C: 97 % of control
dose: 100.0 mg/kg/injection, schedule: Q04DX004 (ip), vehicle: suspension in saline
  T/C: 113 % of control
